A short description of series [1]: Microsomal stability (intrinsic clearance), mouse liver microsomes. The format is in vitro ADME. Further details: microsomal CLint: dose or concentration left out as unconfirmed. Conditions: mouse, liver microsomes, pH 7.4, mouse liver microsomes. The text has this:
(§1) A microsomal stability assay is used to measure in vitro clearance (Clint). The assay involves measuring the rate of disappearance of a compound due to its intrinsic attitude to be metabolized (“intrinsic” meaning that the disappearance is not affected by other properties like permeability, binding etc. that play a role when quantifying in vivo clearance). The microsomal stability (intrinsic clearance, Clint) and thus metabolic stability is generally given as μl/min/mg protein. It can be visualized as the volume of solution that 1 mg of microsomes is able to clear of the compound in one minute.
(§2) A Tecan Genesis workstation (RSP 150/8) was used for to perform the microsomal incubations. Analysis was carried out using a Waters ACQUITY UPLC system coupled to an ABSciex API3000 mass spectrometer. Data analysis was performed using Assay Explorer (Symyx).
(§3) Mobile phases: A=0.1% formic acid in water; B=acetonitrile
(§4) Flow rate: 0.750 mL/min; Detection: ESI, MRM; Injection: 10 μL; Column temperature: 50° C.
(§5) Potassium phosphate buffer: 0.05 M potassium phosphate buffer pH 7.4 containing 1 mM MgCl2 NADPH (nicotinamide adenine dinucleotide phosphate): 22.5 mg NADPH-Na4 in 1.8 ml potassium phosphate buffer Acetonitrile: 50 Vol % acetonitrile (1 volume acetonitrile, 1 volume water) DMSO: 20 Vol % DMSO in water Stock solution of 20 mg/ml human or mouse liver microsomes (protein)/ml in phosphate buffer Stock solution of 10 mM compound in 100% DMSO

Series [2] in a line: Microsomal stability (intrinsic clearance), human liver microsomes. Format: in vitro ADME. Further details: microsomal CLint: dose or concentration left out as unconfirmed. Conditions: human, liver microsomes, pH 7.4, human liver microsomes.
Text: as §1, §2, §3, §4, §5
On the technique in general: Liver microsomes are a subcellular fraction often used to study metabolism.

Series [3] concerns the target T1, Human recombinant His-tagged PFKFB3 (Homo sapiens, UniProt Q16875).
T1 construct: His; made in house
Put plainly: PFKFB3 IC50 determination assay (modified ADP-Glo in vitro kinase assay). Format: biochemical. The settings on record: human recombinant PFKFB3 25 nM, ATP 20 μM, fructose-6-phosphate 2 μM, 2 h, rt; read-out: PFKFB IC50. The procedure: In vitro kinase assay used to determine IC50 values for tested inhibitors is based on a modified ADP-Glo™ system (Promega) and consists of two parts:
1. Kinase reaction—performed in optimized conditions. At this step PFKFB3 phosphorylates its substrate fructose-6-phosphate using ATP as a source of phosphate to produce fructose-2,6-bisphosphate and ADP. Reaction is performed at Km values for ATP and substrate using optimized buffer composition and time of the reaction. Human recombinant His-tagged PFKFB3 (PFKFB3 BATCH II SEC) with confirmed activity is produced and purified in-house. 2. Detection of ADP as a product of the reaction using ADP-Glo™ system. This part is conducted by using the commercially available kit ADP-Glo™ Kinase Assay (Promega, cat. No# V9103) according to manufacturer's instruction, modified by 5× dilutions of assay reagents (both ADP-Glo™ Reagent and Kinase Detection Solution). Reproducibility and reliability of this modification is confirmed in an optimization process.
Test compounds are dissolved in DMSO and then transferred to the V-bottom 96-well plate. For IC50 determination ten 10× serial dilutions starting from 100 μM are prepared.
Two mixes are prepared on ice: Mix 1—containing appropriate kinase amount in 2× reaction buffer (100 mM TRIS pH 8.0) and Mix 2—containing 2.31× concentrated substrate (Fructose-6-phosphate) and ATP in MilliQ water. 15 μL per well of Mix 1 is transferred to assay wells of 96-well white plate. Next, 2 μl of 15× concentrated test compound in DMSO is added to Mix 1 for 20 min pre-incubation, followed by addition of Mix 2 (13 μl/well). Total reaction volume is 30 μL per well. Samples are tested in duplicates. Final concentration of DMSO in the reaction is 6.7%. Conditions needed for performing PFKFB3 (PFKFB3 BATCH II SEC) in vitro kinase assay are given below:
This protocol is based on Technical Bulletin, ADP-Glo™ Kinase Assay (Promega) and is adapted to 96-well plate containing 30 μL reaction mixture:
30 μL of 5× diluted ADP-Glo™ Reagent is added to each well of 96-well plate containing 30 μL of reaction mixture. The plate is incubated for 90 minutes on a shaker at rt. 60 μL of 5× diluted Kinase Detection Solution is added to each well of 96-well plate containing 60 μL of the solution (ratio of kinase reaction volume to ADP-Glo™ Reagent volume to Kinase Detection Solution volume is maintained at 1:1:2). Plate is incubated for 40 minutes on a shaker at rt, protected from light. Luminescence is measured in the plate reader Synergy 2 (BioTek).
Luminescent readouts for compounds tested in 10 concentrations (routinely from 100 μM to […], […] serial dilutions) in duplicates, as well as for positive control, are first normalized to no-substrate negative control by its subtraction. In the next step, % of normalized positive control is calculated for each data point and plotted against test compound concentration:
% of control—percent of positive control normalized to no-substrate negative control Lumcpd—luminescence of test compound Lumneg—luminescence of no-substrate negative control Lumpos—luminescence of positive control
IC50 parameter is determined by the GraphPad Prism 5.0 software [log(inhibitor) vs. response—Variable slope (four parameters)].

pIC50: −log10 of the molar value.

As a reminder, the microsomal CLint is the rate of metabolic loss divided by the concentration. As a reminder, the pIC50 is the negative decadic logarithm of the IC50, by convention in mol/L.

T1 sequence (Q16875 whole entry): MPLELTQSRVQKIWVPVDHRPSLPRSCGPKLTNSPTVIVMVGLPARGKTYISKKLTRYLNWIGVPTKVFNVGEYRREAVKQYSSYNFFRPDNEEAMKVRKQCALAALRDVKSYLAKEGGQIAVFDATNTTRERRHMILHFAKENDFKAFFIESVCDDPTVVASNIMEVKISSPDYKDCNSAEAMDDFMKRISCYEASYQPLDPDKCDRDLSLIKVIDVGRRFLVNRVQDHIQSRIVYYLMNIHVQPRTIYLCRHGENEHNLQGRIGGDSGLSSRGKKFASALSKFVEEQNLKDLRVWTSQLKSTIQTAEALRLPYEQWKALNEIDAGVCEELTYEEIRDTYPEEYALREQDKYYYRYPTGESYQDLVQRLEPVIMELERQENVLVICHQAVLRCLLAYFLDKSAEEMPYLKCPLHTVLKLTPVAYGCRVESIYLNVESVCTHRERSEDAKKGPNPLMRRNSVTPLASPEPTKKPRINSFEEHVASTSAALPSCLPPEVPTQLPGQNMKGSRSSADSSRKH

As for `COc1ccc([C@@H](Nc2cc(-c3ccc4ccn(C)c4c3)c3nccnc3c2)c2cccnc2)cn1` [Comparative Example 4, [(S)-(6-methoxy-pyridin-3-yl)-pyridin-3-yl-methyl]-[8-(1-methyl-1H-indol-6-yl)-quinoxalin-6-yl]-amine, reference compound], the microsomal CLint in series [1] came to 291 µL/min/mg; in series [2], 214 µL/min/mg. Besides, in series [3], the pIC50 was 8.00.
On to `COc1ccc([C@@H](Nc2cc(-c3ccc4ccn(C)c4c3)c3nccnc3c2)c2cccnc2)nn1` (single isomer, unassigned) [Example 5], for which the microsomal CLint in series [1] came out at 154 µL/min/mg; in series [2], 264 µL/min/mg. Further, the pIC50 in series [3] was 8.10.
On the same counts, the results for `Cn1cc([C@H](Nc2cc(-c3ccc4ccn(C)c4c3)c3nccnc3c2)c2cncn2C)cn1` (single isomer, unassigned) [Example 11] are 105 µL/min/mg, 130 µL/min/mg and 7.85.
For `Cn1cc([C@H](Nc2cc(-c3ccc4ccn(C)c4c3)c3nccnc3c2)c2cnnn2C)cn1` (single isomer, unassigned) [Example 8], in that order: 29 µL/min/mg, 50 µL/min/mg and 8.28.
For `Cn1ccc2ccc(-c3cc(NC(c4cccnc4)c4ccc(=O)[nH]n4)cc4nccnc34)cc21` (single isomer, unassigned) [Example 2], in that order: 101 µL/min/mg, 78 µL/min/mg and 7.55.

For the origin of these results see patent publication US20190256499A1, “SUBSTITUTED QUINOXALINE DERIVATIVES AS INHIBITORS OF PFKFB” (priority 2016, published 2019).
